Data reported in article PMC3914206.

How the values were obtained:
panel of 442 kinases [1] = molecular target: T1, panel of 442 kinases (Homo sapiens, UniProt P57078); type: binding; details: Compound Concentration 10 µM
T1 construct: purchased KINOMEscan
T1 sequence (P57078 1-832): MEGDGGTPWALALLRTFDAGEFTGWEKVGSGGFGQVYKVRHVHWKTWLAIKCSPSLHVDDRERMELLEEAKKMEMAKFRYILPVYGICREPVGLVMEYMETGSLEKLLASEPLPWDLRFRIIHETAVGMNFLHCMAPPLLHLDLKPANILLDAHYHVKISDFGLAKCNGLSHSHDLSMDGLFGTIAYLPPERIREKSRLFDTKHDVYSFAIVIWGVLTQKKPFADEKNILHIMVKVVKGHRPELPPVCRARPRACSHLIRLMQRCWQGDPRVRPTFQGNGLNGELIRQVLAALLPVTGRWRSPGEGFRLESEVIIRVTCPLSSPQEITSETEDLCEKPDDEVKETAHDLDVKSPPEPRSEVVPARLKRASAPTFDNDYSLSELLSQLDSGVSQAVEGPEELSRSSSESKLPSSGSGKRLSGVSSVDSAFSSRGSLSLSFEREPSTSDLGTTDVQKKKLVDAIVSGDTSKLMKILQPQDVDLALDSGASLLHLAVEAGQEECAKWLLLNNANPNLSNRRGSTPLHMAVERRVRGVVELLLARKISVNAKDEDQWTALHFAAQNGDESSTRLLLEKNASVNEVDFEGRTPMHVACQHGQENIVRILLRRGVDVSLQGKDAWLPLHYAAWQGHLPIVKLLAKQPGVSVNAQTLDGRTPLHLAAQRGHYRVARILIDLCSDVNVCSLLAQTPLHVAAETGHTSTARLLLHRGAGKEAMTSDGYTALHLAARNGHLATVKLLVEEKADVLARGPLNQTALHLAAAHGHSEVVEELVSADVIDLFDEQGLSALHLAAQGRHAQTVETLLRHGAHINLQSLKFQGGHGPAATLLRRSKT
Excerpt: (§1) We assessed the selectivity of members of this scaffold using the KINOMEscan methodology across a near comprehensive panel of 442 kinases [[18,27]].

panel of 442 kinases [2] = molecular target: T2, panel of 442 kinases (Homo sapiens, UniProt Q15139); type: binding; details: Compound Concentration 10 µM
T2 construct: purchased KINOMEscan
T2 sequence (Q15139 1-912): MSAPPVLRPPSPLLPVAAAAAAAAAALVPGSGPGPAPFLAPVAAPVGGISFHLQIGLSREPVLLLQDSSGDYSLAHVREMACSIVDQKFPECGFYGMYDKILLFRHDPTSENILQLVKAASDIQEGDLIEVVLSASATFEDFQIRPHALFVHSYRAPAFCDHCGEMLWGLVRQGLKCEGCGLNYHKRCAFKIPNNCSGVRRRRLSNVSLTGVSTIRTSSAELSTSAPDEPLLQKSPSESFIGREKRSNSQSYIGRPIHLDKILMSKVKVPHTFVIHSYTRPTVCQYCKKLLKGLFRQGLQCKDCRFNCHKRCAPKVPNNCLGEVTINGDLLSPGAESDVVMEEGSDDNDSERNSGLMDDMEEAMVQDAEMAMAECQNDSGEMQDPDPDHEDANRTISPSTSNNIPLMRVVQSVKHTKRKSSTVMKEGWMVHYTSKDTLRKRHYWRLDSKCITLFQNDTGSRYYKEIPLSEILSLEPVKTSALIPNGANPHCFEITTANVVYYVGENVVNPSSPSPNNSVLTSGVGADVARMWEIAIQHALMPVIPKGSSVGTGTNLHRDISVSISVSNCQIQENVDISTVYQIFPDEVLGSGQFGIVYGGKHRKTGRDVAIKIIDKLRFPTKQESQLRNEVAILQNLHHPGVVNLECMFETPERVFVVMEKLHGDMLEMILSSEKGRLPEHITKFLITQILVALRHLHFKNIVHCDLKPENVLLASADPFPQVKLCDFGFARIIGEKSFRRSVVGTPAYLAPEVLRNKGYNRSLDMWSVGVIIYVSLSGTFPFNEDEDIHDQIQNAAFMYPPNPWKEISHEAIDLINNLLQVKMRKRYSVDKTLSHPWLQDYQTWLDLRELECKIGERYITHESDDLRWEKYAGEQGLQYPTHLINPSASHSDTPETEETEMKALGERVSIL
Excerpt: as §1

Row | Structure (SMILES) | KINOMEscan: RIPK4 (panel of 442 kinases [1]) | KINOMEscan: PRKD1 (panel of 442 kinases [2])
1 | COc1cc(C(=O)N2CCC(N3CCN(C)CC3)CC2)ccc1Nc1ncc2c(n1)N(C)c1ccccc1C(=O)N2C [15 (LRRK2-IN-1)] | 74 | 28
2 | COc1cc(C(=O)N2CCC(N3CCN(C)CC3)CC2)ccc1Nc1ncc2c(n1)N1CCc3cccc(c31)C(=O)N2C [Compound 24] |  | 21
3 | COc1cc(C(=O)N2CCC(N3CCN(C)CC3)CC2)ccc1Nc1ncc2c(n1)N(C1CCCC1)c1ccccc1C(=O)N2C [Compound 25, 11-cyclopentyl-2-((2-methoxy-4-(4-(4-methylpiperazin-1-yl)piperidine-1-carbonyl)phenyl)amino)-5-methyl-5H-benzo[e]pyrimido[5,4-b][1,4]diazepin-6(11H)-one] | 100 | 100
4 | CCOc1cc(C(=O)N2CCC(N3CCN(C)CC3)CC2)ccc1Nc1ncc2c(n1)N(C1CCCC1)c1ccccc1C(=O)N2C [Compound 26] | 100 | 100
